This assay has as its target interaction of human SOS1 (SOS1) with human K-RasG12C (Homo sapiens (Human), UniProt Q07889). As to the kind of experiment: Biochemical assay: hK-RasG12C interaction assay with hSOS1 (HTRF). In kind it is binding. The settings on record: GST-hK-RasG12C with His-hSOS1, 60 min incubation at 20° C., mean, read-out: K-RasG12C - SOS interaction assay IC50 (mean). The method, boiled down: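 Compounds, duplicates at 11 concentrations from 0.073 nM to 20 µM, were preincubated 2 min with 10 nM GST-hK-RasG12C, then 20 nM His-hSOS1 was added, all at 20 °C. After 60 min, 665/620 nm HTRF ratio normalized to DMSO and SOS1-free controls; IC50 by 4-parameter fit.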

interaction of human SOS1 (SOS1) with human K-RasG12C, sequence (Q07889 564-1049 limits assumed): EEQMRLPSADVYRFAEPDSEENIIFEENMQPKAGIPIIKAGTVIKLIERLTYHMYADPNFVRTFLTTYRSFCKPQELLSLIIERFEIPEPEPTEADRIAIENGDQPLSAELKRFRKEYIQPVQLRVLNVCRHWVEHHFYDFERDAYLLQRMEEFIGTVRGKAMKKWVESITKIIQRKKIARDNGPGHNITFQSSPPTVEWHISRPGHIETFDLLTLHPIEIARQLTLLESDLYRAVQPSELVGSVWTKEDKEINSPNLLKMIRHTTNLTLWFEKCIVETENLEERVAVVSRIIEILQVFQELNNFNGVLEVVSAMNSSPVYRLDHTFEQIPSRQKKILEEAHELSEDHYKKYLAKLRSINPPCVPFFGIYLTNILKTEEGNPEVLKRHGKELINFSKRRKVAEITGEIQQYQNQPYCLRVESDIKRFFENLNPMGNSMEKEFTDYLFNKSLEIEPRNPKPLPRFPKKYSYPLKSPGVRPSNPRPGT

Take `Cc1nc(N[C@H](C)c2cccc(C(F)(F)C(C)(C)O)c2F)c2cc(P(=O)(C(C)C)C(C)C)c(C)nc2n1` [Example 21, 1-{3-[(1R)-1-({6-[di(propan-2-yl)phosphoryl]-2,7-dimethylpyrido[2,3-d]pyrimidin-4-yl}amino)ethyl]-2-fluorophenyl}-1,1-difluoro-2-methylpropan-2-ol]: the IC50 was 121 nM. For the compound `Cc1nc(N[C@H](C)c2cccc(C(F)(F)F)c2C)c2cc(P(C)(C)=O)c(C(F)(F)F)nc2n1` [Example 22, 6-(dimethylphosphoryl)-2-methyl-N-{(1R)-1-[2-methyl-3-(trifluoromethyl)phenyl]ethyl}-7-(trifluoromethyl)pyrido[2,3-d]pyrimidin-4-amine], the 50% inhibitory concentration (IC50) is 18.7 nM. For `Cc1nc(N[C@H](C)c2cccc(C(F)(F)C(C)(C)O)c2F)c2cc(P(C)(C)=O)nc(O)c2n1` [Example 26, 4-({(1R)-1-[3-(1,1-difluoro-2-hydroxy-2-methylpropyl)-2-fluorophenyl]ethyl}amino)-6-(dimethylphosphoryl)-2-methylpyrido[3,4-d]pyrimidin-8-ol] the value was 9.18 nM; for `CC(=O)N1CCP(=O)(c2cc3c(N[C@H](C)c4cccc(C(F)(F)F)c4C)nc(C)nc3c(O)n2)CC1` [Example 30, 1-acetyl-4-[8-hydroxy-2-methyl-4-({(1R)-1-[2-methyl-3-(trifluoromethyl)phenyl]ethyl}amino)pyrido[3,4-d]pyrimidin-6-yl]-1,4lambda^5-azaphosphinan-4-one], 1360 nM.

Consider `Cc1nc(N[C@H](C)c2cccc(C(F)(F)F)c2C)c2cc(P3(=O)CCN(C=O)CC3)ncc2n1` [Example 31, 4-[2-methyl-4-({(1R)-1-[2-methyl-3-(trifluoromethyl)phenyl]ethyl}amino)pyrido[3,4-d]pyrimidin-6-yl]-4-oxo-1,4lambda^5-azaphosphinane-1-carbaldehyde], for which the IC50 is 6.37 nM. As to `CC(=S)N1CCP(=O)(c2cc3c(N[C@H](C)c4cccc(C(F)(F)F)c4C)nc(C)nc3cn2)CC1` [Example 32, 1-ethanethioyl-4-[2-methyl-4-({(1R)-1-[2-methyl-3-(trifluoromethyl)phenyl]ethyl}amino)pyrido[3,4-d]pyrimidin-6-yl]-1,4lambda^5-azaphosphinan-4-one], the IC50 amounted to 12.2 nM. On to `Cc1nc(N[C@H](C)c2cccc(C(F)(F)CO)c2F)c2cc(P(C)(C)=O)ccc2n1` [Example 33, 2-{3-[(1R)-1-{[6-(dimethylphosphoryl)-2-methylquinazolin-4-yl]amino}ethyl]-2-fluorophenyl}-2,2-difluoroethan-1-ol], for which the IC50 is 7.06 nM.

In the case of `CC(=O)N1CCP(=O)(c2cc3c(N[C@H](C)c4cccc(C(F)(F)F)c4C)nc(C)nc3c(CO)n2)CC1` [Example 34, 1-acetyl-4-[8-(hydroxymethyl)-2-methyl-4-({(1R)-1-[2-methyl-3-(trifluoromethyl)phenyl]ethyl}amino)pyrido[3,4-d]pyrimidin-6-yl]-1,4lambda^5-azaphosphinan-4-one], the IC50 amounted to 72.8 nM. Consider `CC(=O)N1CCP(=O)(c2cc3c(N[C@H](C)c4cccc(C(F)(F)F)c4C)nc(C)nc3c(C3CC3)n2)CC1` [Example 35, 1-acetyl-4-[8-cyclopropyl-2-methyl-4-({(1R)-1-[2-methyl-3-(trifluoromethyl)phenyl]ethyl}amino)pyrido[3,4-d]pyrimidin-6-yl]-1,4lambda^5-azaphosphinan-4-one], for which the IC50 came out at 21.5 nM. With `CC(=O)N1CCP(=O)(c2cc3c(N[C@H](C)c4cccc(C(F)(F)F)c4C)nc(C)nc3c(C(F)F)n2)CC1` [Example 36, 1-acetyl-4-[8-(difluoromethyl)-2-methyl-4-({(1R)-1-[2-methyl-3-(trifluoromethyl)phenyl]ethyl}amino)pyrido[3,4-d]pyrimidin-6-yl]-1,4lambda^5-azaphosphinan-4-one] the figure was 16.7 nM; with `COCc1nc(P2(=O)CCN(C(C)=O)CC2)cc2c(N[C@H](C)c3cccc(C(F)(F)F)c3C)nc(C)nc12` [Example 37, 1-acetyl-4-[8-(methoxymethyl)-2-methyl-4-({(1R)-1-[2-methyl-3-(trifluoromethyl)phenyl]ethyl}amino)pyrido[3,4-d]pyrimidin-6-yl]-1,4lambda^5-azaphosphinan-4-one], 9.69 nM.

Take `Cc1nc(N[C@H](C)c2cccc(C(F)(F)F)c2C)c2cc(P3(=O)CCN(c4cnn(C)c4)CC3)ncc2n1` [Example 39, 4-[2-methyl-4-({(1R)-1-[2-methyl-3-(trifluoromethyl)phenyl]ethyl}amino)pyrido[3,4-d]pyrimidin-6-yl]-1-(1-methyl-1H-pyrazol-4-yl)-1,4lambda^5-azaphosphinan-4-one]: the IC50 came to 11.1 nM. Take `Cc1nc(N[C@H](C)c2cccc(C(F)(F)F)c2C)c2cc(P3(=O)CCN(c4ccn(C)n4)CC3)ncc2n1` [Example 40, 4-[2-methyl-4-({(1R)-1-[2-methyl-3-(trifluoromethyl)phenyl]ethyl}amino)pyrido[3,4-d]pyrimidin-6-yl]-1-(1-methyl-1H-pyrazol-3-yl)-1,4lambda^5-azaphosphinan-4-one]: the half-maximal inhibitory concentration (IC50) worked out at 18.3 nM. With `Cc1nc(N[C@H](C)c2cccc(C(F)(F)F)c2C)c2cc(P3(=O)CCN(S(C)(=O)=O)CC3)ncc2n1` [Example 41, 1-(methanesulfonyl)-4-[2-methyl-4-({(1R)-1-[2-methyl-3-(trifluoromethyl)phenyl]ethyl}amino)pyrido[3,4-d]pyrimidin-6-yl]-1,4lambda^5-azaphosphinan-4-one] the figure was 174 nM.

As for `CC(=O)N1CCP(=O)(c2cc3c(N[C@H](C)c4cccc(C(F)(F)CO)c4F)nc(C)nc3cn2)CC1` [Example 42, 1-acetyl-4-[4-({(1R)-1-[3-(1,1-difluoro-2-hydroxyethyl)-2-fluorophenyl]ethyl}amino)-2-methylpyrido[3,4-d]pyrimidin-6-yl]-1,4lambda^5-azaphosphinan-4-one], the IC50 is 4.87 nM. For the compound `CC(=O)N1CCP(=O)(c2cc3c(N[C@H](C)c4cccc(C(F)(F)C(=O)O)c4F)nc(C)nc3cn2)CC1` [Example 43, {3-[(1R)-1-{[6-(1-acetyl-4-oxo-1,4lambda^5-azaphosphinan-4-yl)-2-methylpyrido[3,4-d]pyrimidin-4-yl]amino}ethyl]-2-fluorophenyl}(difluoro)acetic acid], the IC50 amounted to 375 nM.

Turning to `CC(=O)N1CCP(=O)(c2cc3c(N[C@H](C)c4cccc(C(F)(F)C(=O)NC5CC5)c4F)nc(C)nc3cn2)CC1` [Example 44, 2-{3-[(1R)-1-{[6-(1-acetyl-4-oxo-1,4lambda^5-azaphosphinan-4-yl)-2-methylpyrido[3,4-d]pyrimidin-4-yl]amino}ethyl]-2-fluorophenyl}-N-cyclopropyl-2,2-difluoroacetamide], the concentration for half-maximal inhibition (IC50) was 15.9 nM. Turning to `CC(=O)N1CCP(=O)(c2cc3c(N[C@H](C)c4cccc(C(F)(F)C(=O)N(C)C)c4F)nc(C)nc3cn2)CC1` [Example 45, 2-{3-[(1R)-1-{[6-(1-acetyl-4-oxo-1,4lambda^5-azaphosphinan-4-yl)-2-methylpyrido[3,4-d]pyrimidin-4-yl]amino}ethyl]-2-fluorophenyl}-2,2-difluoro-N,N-dimethylacetamide], the IC50 is 17 nM. In the case of `CC(=O)N1CCP(=O)(c2cc3c(N[C@H](C)c4cccc(C(F)(F)C(N)=O)c4F)nc(C)nc3cn2)CC1` [Example 46, 2-{3-[(1R)-1-{[6-(1-acetyl-4-oxo-1,4lambda^5-azaphosphinan-4-yl)-2-methylpyrido[3,4-d]pyrimidin-4-yl]amino}ethyl]-2-fluorophenyl}-2,2-difluoroacetamide], the IC50 amounted to 6.1 nM. With `CNC(=O)C(F)(F)c1cccc([C@@H](C)Nc2nc(C)nc3cnc(P4(=O)CCN(C(C)=O)CC4)cc23)c1F` [Example 47, 2-{3-[(1R)-1-{[6-(1-acetyl-4-oxo-1,4lambda^5-azaphosphinan-4-yl)-2-methylpyrido[3,4-d]pyrimidin-4-yl]amino}ethyl]-2-fluorophenyl}-2,2-difluoro-N-methylacetamide] the figure was 13.8 nM; with `Cc1nc(N[C@H](C)c2cccc(C(F)(F)C(N)=O)c2F)c2cc(P(C)(C)=O)ncc2n1` [Example 48, 2-{3-[(1R)-1-{[6-(dimethylphosphoryl)-2-methylpyrido[3,4-d]pyrimidin-4-yl]amino}ethyl]-2-fluorophenyl}-2,2-difluoroacetamide], 29.3 nM; with `CCNC(=O)C(F)(F)c1cccc([C@@H](C)Nc2nc(C)nc3cnc(P(C)(C)=O)cc23)c1F` [Example 49, 2-{3-[(1R)-1-{[6-(dimethylphosphoryl)-2-methylpyrido[3,4-d]pyrimidin-4-yl]amino}ethyl]-2-fluorophenyl}-N-ethyl-2,2-difluoroacetamide], 87.5 nM. As for `Cc1nc(N[C@H](C)c2cccc(C(F)(F)C(=O)N(C)C)c2F)c2cc(P(C)(C)=O)ncc2n1` [Example 50, 2-{3-[(1R)-1-{[6-(dimethylphosphoryl)-2-methylpyrido[3,4-d]pyrimidin-4-yl]amino}ethyl]-2-fluorophenyl}-2,2-difluoro-N,N-dimethylacetamide], the IC50 came out at 156 nM. Consider `CNC(=O)C(F)(F)c1cccc([C@@H](C)Nc2nc(C)nc3cnc(P(C)(C)=O)cc23)c1F` [Example 51, 2-{3-[(1R)-1-{[6-(dimethylphosphoryl)-2-methylpyrido[3,4-d]pyrimidin-4-yl]amino}ethyl]-2-fluorophenyl}-2,2-difluoro-N-methylacetamide], for which the IC50 was determined as 86.3 nM. For `Cc1nc(N[C@H](C)c2cccc(C(F)F)c2F)c2cc(P3(=O)CCN(C)CC3)ncc2n1` [Example 52, 4-[4-({(1R)-1-[3-(difluoromethyl)-2-fluorophenyl]ethyl}amino)-2-methylpyrido[3,4-d]pyrimidin-6-yl]-1-methyl-1,4lambda^5-azaphosphinan-4-one] the value was 35.5 nM.

One may read the IC50 as the concentration that inhibits the measured activity by half.

(Values after patent publication US20240247015A1, “PHOSPHORUS DERIVATIVES AS NOVEL SOS1 INHIBITORS” (BAYER AKTIENGESELLSCHAFT, priority 2021, published 2024).)
